Results taken from patent US6403616B1, “Chemical process and pharmaceutical formulation” (AstraZeneca AB, priority 1998, dated 2002).

Assay: pKa of omeprazole magnesium
Type: physicochemical
From the text: Preferably, a suspension of omeprazole magnesium should have a pH of 9.5 or above in a 10% (w/w) suspension of the bulk substance.

- pKa: 8.8
Compound: COc1ccc2[n-]c([S+]([O-])Cc3ncc(C)c(OC)c3C)nc2c1.COc1ccc2[n-]c([S+]([O-])Cc3ncc(C)c(OC)c3C)nc2c1.[Mg+2] (stereo not shown) [omeprazole magnesium]
